22 compounds from US12187713B2, “Immunomodulators, compositions and methods thereof” (Betta Pharmaceuticals Co., Ltd, priority 2019, dated 2025) can be followed below.

The first assay deals with PD-1/PD-L1 (Homo sapiens (Human), UniProt Q9NZQ7). Description: PD-1/PD-L1 Binding Assay (Alphascreen). Particulars: numeric values. A digest of the protocol: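 PD-1/PD-L1 binding detected by anti-6×His acceptor and streptavidin donor beads after 120 min in the dark at 25 °C. Beforehand, the two proteins were incubated 15 min at 25 °C with inhibitor at 0.015–300 nM (1% DMSO). IC50 comes from a log concentration–response curve.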
Chain of PD-1/PD-L1 (Q9NZQ7 19-238): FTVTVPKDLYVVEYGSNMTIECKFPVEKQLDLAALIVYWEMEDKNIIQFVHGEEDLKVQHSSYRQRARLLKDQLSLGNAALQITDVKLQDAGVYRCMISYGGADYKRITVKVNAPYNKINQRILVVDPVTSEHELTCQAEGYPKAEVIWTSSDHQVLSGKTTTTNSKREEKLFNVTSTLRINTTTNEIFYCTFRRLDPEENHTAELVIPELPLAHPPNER
`Cc1c(Nc2nccc3cc(CNCC(=O)O)cnc23)cccc1-c1cccc(-c2nc3cc(CN4CCC[C@H]4C(=O)O)c(OC(F)F)cc3o2)c1C` [Example 172, ((2-(3′-((3-(((carboxymethyl)amino)methyl)-1,7-naphthyridin-8-yl)amino)-2,2′-dimethyl-[1,1′-biphenyl]-3-yl)-6-(difluoromethoxy)benzo[d]oxazol-5-yl)methyl)-L-proline]: the IC50 (in general, the midpoint of a concentration-inhibition curve) worked out at 0.3 nM. This counts as sub-nanomolar. `Cc1c(Nc2nccc3cc(CN4CCCC[C@H]4C(=O)O)cnc23)cccc1-c1cccc(-c2nc3cc(CN4CCC[C@H]4C(=O)O)c(OC(F)F)cc3o2)c1C` [Example 173, (S)-1-((8-((3′-(5-(((S)-2-carboxypyrrolidin-1-yl)methyl)-6-(difluoromethoxy)benzo[d]oxazol-2-yl)-2,2′-dimethyl-[1,1′-biphenyl]-3-yl)amino)-1,7-naphthyridin-3-yl)methyl)piperidine-2-carboxylic acid]: the IC50 came to 0.93 nM. With `Cc1c(Nc2nccc3cc(CN4CCC(F)C4)cnc23)cccc1-c1cccc(-c2nc3cc(CN4CCC[C@H]4C(=O)O)c(OC(F)F)cc3o2)c1C` (stereo partly drawn) [Example 174, ((6-(difluoromethoxy)-2-(3′-((3-((3-fluoropyrrolidin-1-yl)methyl)-1,7-naphthyridin-8-yl)amino)-2,2′-dimethyl-[1,1′-biphenyl]-3-yl)benzo[d]oxazol-5-yl)methyl)-L-proline], the IC50 is 21 nM.

The same assay, now with this note: range symbols.
For the compound `Cc1c(-c2nc3cc(CN4CCC[C@H]4C(=O)O)c(OC(F)F)cc3o2)cccc1-c1cccc(-c2nc3cc(CN4CC(N(C)C5COC5)C4)cc(C#N)c3o2)c1C` [Example 149, ((2-(3′-(7-cyano-5-((3-(methyl(oxetan-3-yl)amino)azetidin-1-yl)methyl)benzo[d]oxazol-2-yl)-2,2′-dimethyl-[1,1′-biphenyl]-3-yl)-6-(difluoromethoxy)benzo[d]oxazol-5-yl)methyl)-L-proline], the 50% inhibitory concentration (IC50) lay within 0.1 to 5 nM. `Cc1c(-c2nc3cc(CN4CCC[C@H]4C(=O)O)c(OC(F)F)cc3o2)cccc1-c1cccc(-c2nc3cc(CN4CC(N5CC(C)(O)C5)C4)cc(C#N)c3o2)c1C` [Example 150, ((2-(3′-(7-cyano-5-((3-hydroxy-3-methyl-[1,3′-biazetidin]-1′-yl)methyl)benzo[d]oxazol-2-yl)-2,2′-dimethyl-[1,1′-biphenyl]-3-yl)-6-(difluoromethoxy)benzo[d]oxazol-5-yl)methyl)-L-proline]: the IC50 lay within 0.1 to 5 nM. The same measure, in the same setting: with `Cc1c(-c2nc3cc(CN4CCC[C@H]4C(=O)O)c(OC(F)F)cc3o2)cccc1-c1cccc(-c2nc3cc(CN4CC5(CCC(=O)N5)C4)cc(C#N)c3o2)c1C` [Example 151, ((2-(3′-(7-cyano-5-((6-oxo-2,5-diazaspiro[3.4]octan-2-yl)methyl)benzo [d]oxazol-2-yl)-2,2′-dimethyl-[1,1′-biphenyl]-3-yl)-6-(difluoromethoxy)benzo[d]oxazol-5-yl)methyl)-L-proline] the figure was 0.1 to 5 nM; with `Cc1c(-c2nc3cc(CN4CCC[C@H]4C(=O)O)c(OC(F)F)cc3o2)cccc1-c1cccc(-c2nc3cc(CN4CCC(CN(C)C)C4)cc(C#N)c3o2)c1C` (stereo partly drawn) [Example 152, ((2-(3′-(7-cyano-5-((3-((dimethylamino)methyl)pyrrolidin-1-yl)methyl)benzo [d]oxazol-2-yl)-2,2′-dimethyl-[1,1′-biphenyl]-3-yl)-6-(difluoromethoxy)benzo[d]oxazol-5-yl)methyl)-L-proline], 0.1 to 5 nM; with `Cc1c(-c2nc3cc(CN4CCC[C@H]4C(=O)O)c(OC(F)F)cc3o2)cccc1-c1cccc(-c2nc3cc(CN4CCC5(C4)CC5(F)F)cc(C#N)c3o2)c1C` (stereo partly drawn) [Example 153, ((2-(3′-(7-cyano-5-((1,1-difluoro-5-azaspiro[2.4]heptan-5-yl)methyl)benzo [d]oxazol-2-yl)-2,2′-dimethyl-[1,1′-biphenyl]-3-yl)-6-(difluoromethoxy)benzo[d]oxazol-5-yl)methyl)-L-proline], 0.1 to 5 nM. The compound `Cc1c(-c2nc3cc(CN4CCC[C@H]4C(=O)O)c(OC(F)F)cc3o2)cccc1-c1cccc(-c2nc3cc(CN4CC[C@@H](CO)C4)cc(C#N)c3o2)c1C` [Example 154, ((2-(3′-(7-cyano-5-(((R)-3-(hydroxymethyl)pyrrolidin-1-yl)methyl)benzo [d]oxazol-2-yl)-2,2′-dimethyl-[1,1′-biphenyl]-3-yl)-6-(difluoromethoxy)benzo[d]oxazol-5-yl)methyl)-L-proline] displayed an IC50 of 5 to 50 nM. Compound `Cc1c(-c2nc3cc(CN4CCC[C@H]4C(=O)O)c(OC(F)F)cc3o2)cccc1-c1cccc(-c2nc3cc(CNC4CC(O)C4)cc(C#N)c3o2)c1C` (stereo partly shown) [Example 155] came in with an IC50 of 0.1 to 5 nM. Turning to `Cc1c(-c2nc3cc(CN4CCC[C@H]4C(=O)O)c(OC(F)F)cc3o2)cccc1-c1cccc(-c2nc3cc(CN4CC(C)C(N)C4)cc(C#N)c3o2)c1C` (stereo partly shown) [Example 156], the IC50 was 0.1 to 5 nM. `Cc1c(-c2nc3cc(CN4CCC[C@H]4C(=O)O)c(OC(F)F)cc3o2)cccc1-c1cccc(-c2nc3cc(CNCC4CNC4)cc(C#N)c3o2)c1C` [Example 157] had a concentration for half-maximal inhibition (IC50) of 0.1 to 5 nM.

`Cc1c(-c2nc3cc(CN4CCC[C@H]4C(=O)O)c(OC(F)F)cc3o2)cccc1-c1cccc(-c2nc3cc(CN4CC(C)C(N(C)C)C4)cc(C#N)c3o2)c1C` (stereo partly drawn) [Example 158, ((2-(3′-(7-cyano-5-((3-(dimethylamino)-4-methylpyrrolidin-1-yl)methyl)benzo[d]oxazol-2-yl)-2,2′-dimethyl-[1,1′-biphenyl]-3-yl)-6-(difluoromethoxy)benzo[d]oxazol-5-yl)methyl)-L-proline] returned an IC50 of 0.1 to 5 nM. `Cc1c(-c2nc3cc(CN4CCC[C@H]4C(=O)O)c(OC(F)F)cc3o2)cccc1-c1cccc(-c2nc3cc(CN4CC(C)(CN(C)C)C4)cc(C#N)c3o2)c1C` [Example 159, ((2-(3′-(7-cyano-5-((3-((dimethylamino)methyl)-3-methylazetidin-1-yl)methyl)benzo[d]oxazol-2-yl)-2,2′-dimethyl-[1,1′-biphenyl]-3-yl)-6-(difluoromethoxy)benzo[d]oxazol-5-yl)methyl)-L-proline] displayed an IC50 of 0.1 to 5 nM. Take `Cc1c(-c2nc3cc(CN4CCC[C@H]4C(=O)O)c(OC(F)F)cc3o2)cccc1-c1cccc(-c2nc3cc(CNCc4cn(C)cn4)cc(C#N)c3o2)c1C` [Example 160, ((2-(3′-(7-cyano-5-((((1-methyl-1H-imidazol-4-yl)methyl)amino)methyl)benzo[d]oxazol-2-yl)-2,2′-dimethyl-[1,1′-biphenyl]-3-yl)-6-(difluoromethoxy)benzo[d]oxazol-5-yl)methyl)-L-proline]: the IC50 lay in the range of 0.1 to 5 nM. In turn, `Cc1c(-c2nc3cc(CN4CCC[C@H]4C(=O)O)c(OC(F)F)cc3o2)cccc1-c1cccc(-c2nc3cc(CN4CC(C)(CN)C4)cc(C#N)c3o2)c1C` [Example 161, ((2-(3′-(5-((3-(aminomethyl)-3-methylazetidin-1-yl)methyl)-7-cyanobenzo[d]oxazol-2-yl)-2,2′-dimethyl-[1,1′-biphenyl]-3-yl)-6-(difluoromethoxy)benzo[d]oxazol-5-yl)methyl)-L-proline] returned an IC50 of 0.1 to 5 nM. Still for that read-out and setting: with `Cc1c(-c2nc3cc(CN4CCC[C@@H]4C(=O)O)c(OC(F)F)cc3o2)cccc1-c1cccc(-c2nc3cc(CN4CCC(F)C4)cc(C#N)c3o2)c1C` (stereo partly drawn) [Example 163, ((2-(3′-(7-cyano-5-((3-fluoropyrrolidin-1-yl)methyl)benzo[d]oxazol-2-yl)-2,2′-dimethyl-[1,1′-biphenyl]-3-yl)-6-(difluoromethoxy)benzo[d]oxazol-5-yl)methyl)-D-proline] the figure was 5 to 50 nM. In turn, `Cc1c(-c2nc3cc(CN4CCC[C@H]4C(=O)O)c(OC(F)F)cc3o2)cccc1-c1cccc(-c2nc3cc(CN4CCC(F)C4)cc(C(F)(F)F)c3o2)c1C` (stereo partly drawn) [Example 166, ((6-(difluoromethoxy)-2-(3′-(5-((3-fluoropyrrolidin-1-yl)methyl)-7-(trifluoromethyl)benzo[d]oxazol-2-yl)-2,2′-dimethyl-[1,1′-biphenyl]-3-yl)benzo[d]oxazol-5-yl)methyl)-L-proline] displayed a half-maximal inhibitory concentration (IC50) of 5 to 50 nM. As for `Cc1c(-c2nc3cc(CN4CCC[C@H]4C(=O)O)c(OC(F)F)cc3o2)cccc1-c1cccc(-c2nc3cc(CN4CCC(C)(F)C4)cc(C#N)c3o2)c1C` (stereo partly drawn) [Example 167, ((2-(3′-(7-cyano-5-((3-fluoro-3-methylpyrrolidin-1-yl)methyl)benzo[d]oxazol-2-yl)-2,2′-dimethyl-[1,1′-biphenyl]-3-yl)-6-(difluoromethoxy)benzo[d]oxazol-5-yl)methyl)-L-proline], the IC50 is 5 to 50 nM. Same read-out and setting: in the case of `Cc1c(-c2nc3cc(CN4CCC[C@H]4C(=O)O)c(OC(F)F)cc3o2)cccc1-c1cccc(-c2nc3cc(CN4CC[C@@H](CF)C4)cc(C#N)c3o2)c1C` [Example 168, ((2-(3′-(7-cyano-5-(((R)-3-(fluoromethyl)pyrrolidin-1-yl)methyl)benzo[d]oxazol-2-yl)-2,2′-dimethyl-[1,1′-biphenyl]-3-yl)-6-(difluoromethoxy)benzo[d]oxazol-5-yl)methyl)-L-proline] it was 0.1 to 5 nM. The compound `Cc1c(-c2nc3cc(CN4CC[C@@H](C(=O)O)C4)c(OC(F)F)cc3o2)cccc1-c1cccc(-c2nc3cc(CN4CCCC4)cc(C#N)c3o2)c1C` [Example 169, (R)-1-((2-(3′-(7-cyano-5-(pyrrolidin-1-ylmethyl)benzo[d]oxazol-2-yl)-2,2′-dimethyl-[1,1′-biphenyl]-3-yl)-6-(difluoromethoxy)benzo[d]oxazol-5-yl)methyl)pyrrolidine-3-carboxylic acid] showed an IC50 of 0.1 to 5 nM. Still for that read-out and setting: with `Cc1c(-c2nc3cc(CN4CCC[C@@H]4C(=O)O)c(OC(F)F)cc3o2)cccc1-c1cccc(-c2nc3cc(CN4CC(C)(C)C4)cnc3o2)c1C` [Example 170, ((6-(difluoromethoxy)-2-(3′-(6-((3,3-dimethylazetidin-1-yl)methyl)oxazolo[5,4-b]pyridin-2-yl)-2,2′-dimethyl-[1,1′-biphenyl]-3-yl)benzo[d]oxazol-5-yl)methyl)-D-proline] the figure was 5 to 50 nM.
